Data reported in US11197914B2, “GLP-1R/GCGR dual target agonist polypeptide for treatment of fatty liver diseases, hyperlipemia and arteriosclerosis” (Shenzhen Turier Biotech Co., Ltd., priority 2016, dated 2021).
*1 amine or outer side, *2 acyl side, *3 side chain or, on linkers, in order; H or OH if unused. Primed or numbered codes have the meaning given here. Where no end group is shown, it is not given here. Side-chain parts run from the residue outwards. [ ]: non-standard residue; d: D form. The star is where a group is joined. C16 diacid = O=C(O)CCCCCCCCCCCCCCC(=O)*; γGlu = O=C(O)[C@H](CCC(=O)[*:2])N[*:1]; Stearoyl = CCCCCCCCCCCCCCCCCC(=O)*; Palmitoyl = CCCCCCCCCCCCCCCC(=O)*; PEG2′ = not defined here

Experiments:
[1] = tested on: CCl4-induced hepatic fibrosis mice; experiment: CCl4-induced hepatic fibrosis in mice; type: in vivo, C57 mice; conditions: 500 μg/kg subcutaneous once every two days, 6 weeks
Procedure: 6-8-week-old C57 mice with body weight of 20-25 g at SPF level were provided by Guangdong Medical Laboratory Animal Center and tested by SPF level laboratory in Laboratory Animal Center of Guangdong Pharmaceutical University. C57 mice were divided into control group, hepatic fibrosis model group and treatment group, 8 mice for each group. A mouse was subject to intraperitoneal injection with 20% CCl4 (2 mL/kg, diluted with olive oil at ratio of 1:4) twice a week for continuous 6 weeks to form a stable hepatic fibrosis animal model. For the treatment group, one of subcutaneous injection compounds 2, 6 and 22 with 500 μg/kg of body weight was used respectively once every two days for continuous 6 weeks. Olive oil with same volume and same frequency was administered for the control group and stopped until the end of 6-week experiment. After the end of the experiment, the mice were subject to anesthesia to collect serum and liver specimens. The liver was fixed with 10% formalin and embedded with paraffin.

[2] = tested on: Hepatic stellate cell strain LX-2; experiment: In vitro inhibition of hepatic fibrosis: expression of LX-2 cell activation marker α-SMA (Western Blot, α-SMA/β-actin); type: cell-based, human; conditions: LX-2 cells; for Relative expression of α-SMA (α-SMA/β-actin, %): 1 μM, 48 hours, negative control = 100%
Procedure: Hepatic stellate cell strain LX-2 was selected to study and observe the effect of different doses of test substances on the expression of LX-2 cell activation marker […]. Hepatic stellate cell LX-2 was laid on 35 mm cell culture plate, cultured with DMEM (high glucose)+10% FBS+1% double-antibody culture medium (Thermo Fisher), placed overnight when the cells grew to 70% convergence at 37° C. and under the condition of 5% CO2, and treated with the above compounds 1-37 (dissolved in PBS) for 48 hours the next day morning to extract cell protein, carry out Western Blot, and take β-actin as internal reference and analyze the expression quantities of α-SMA and β-actin by a gray level of Image J 1.50i. PBS with the same volume as that in experimental group was added in negative control. […] The integrating gray level of α-SMA/β-actin in the negative control group was 100% to analyze the in vitro inhibition activity of hepatic fibrosis of tested polypeptide.

[3] = tested on: db/db diabetic obese mice; type: in vivo; conditions: 10 μg/mouse subcutaneous once every two days, 18 days
Procedure: 12-week-old db/db diabetic obese mice were randomly grouped into 3 groups (12-hour fasting before grouping), 6 mice in each group. Mice in each group were injected subcutaneously at a dose of 10 μg/mouse, and mice in the blank group were injected subcutaneously with PBS. The volume for each group was 0.25 ml/mouse once every two days (at 48-hour interval) for 18 days. At the end of the experiment, blood was taken from the orbital venous plexus of each mouse to measure glycosylated hemoglobin (HbAlc), insulin (INS), triglyceride (TG) and total cholesterol (TC) levels in the serum of the mouse. The liver, pancreas, heart, lungs and spleen were taken for HE pathological staining at the same time. GraphPad Prismversion6 software was used for statistical analysis.

[4] = tested on: high fat diet-induced hyperlipidemic mice; experiment: High fat diet-induced NAFLD and hyperlipemia in mice; type: in vivo, C57 mice; conditions: 500 μg/kg subcutaneous once every two days, 12 weeks
Procedure: 6-8-week-old C57 mice with body weight of 20-25 g at SPF level were provided by Guangdong Medical Laboratory Animal Center and tested by SPF level laboratory in Laboratory Animal Center of Guangdong Pharmaceutical University. C57 mice were divided into control group, hepatic fibrosis model group and treatment group, 8 mice for each group. The mice were fed with high fat diet (HFD) for 12 weeks. For the treatment group, subcutaneous injection compounds 2 and 6 with 500 μg/kg of body weight were used once every two days for continuous 12 weeks. PBS with same volume and same frequency was administered for the control group. After the end of the experiment, the mice were subject to anesthesia to collect serum and liver specimens.

Substance | ALT level of serum [1] | CCl4-induced liver injury and fibrosis stage (HE, Sirius Red) [1] | Relative expression of α-SMA (α-SMA/β-actin, %) [2] [%] | Atrophy lesions of pancreatic islets (HE staining) [3] | Inhibition of liver lipoid vacuolar degeneration and lipid inflammation, comparison between compounds [3] | Liver lipoid vacuolar degeneration and lipid inflammation (HE staining) [3] | Total cholesterol (TC) level in serum [3] | Triglyceride (TG) level in serum [3] | Glycosylated hemoglobin (HbAlc) level in serum ([3]; vs blank group) | Insulin (INS) level in serum ([3]; vs blank group) | Fatty liver complicated by hepatic fibrosis (Sirius red) [4] | HFD-induced increase of body weight [4] | Hepatic triglyceride (TG) content [4] | Liver lipid deposition (Oil Red O) [4] | Liver lipoid degeneration and non-alcoholic steatohepatitis (liver tissue biopsy) [4] | Treatment effect on liver lipid deposition and hepatic TG compared with Liraglutide [4] | Control of body weight, comparison between treatments ([4]; compared with liraglutide) | Inhibition of LX-2 cell activation marker α-SMA (in words, from Table 2) [2]
His-(D-Ser)-Gln-Gly-Thr-Phe-Thr-Ser-Asp-Tyr-Ser-Lys-Tyr-Leu-Asp-Ser-Lys(PEG2-PEG2-γGlu-CO(CH2)16CH3)-Ala-Ala-His-Asp-Phe-Val-Glu-Trp-Leu-Leu-Asn-Gly-Gly-Pro-Ser-Ser-Gly-Ala-Pro-Pro-Pro-Ser-NH2 (H[dS]QGTFTSDYSKYLDSK([PEG2′-PEG2′-γGlu-Stearoyl])AAHDFVEWLLNGGPSSGAPPPS-NH2) [Compound 22] | obviously reduce | obviously improved | 90.56 |  |  |  |  |  |  |  |  |  |  |  |  |  |  | 
His-(D-Ser)-Gln-Gly-Thr-Phe-Thr-Ser-Asp-Tyr-Ser-Lys-Tyr-Leu-Asp-Lys(PEG2-PEG2-γGlu-CO(CH2)14CH3)-Arg-Arg-Ala-Gln-Asp-Phe-Val-Gln-Trp-Leu-Met-Asn-Thr-Gly-Gly-Pro-Ser-Ser-Gly-Ala-Pro-Pro-Pro-Ser-NH2 (H[dS]QGTFTSDYSKYLDK([PEG2′-PEG2′-γGlu-Palmitoyl])RRAQDFVQWLMNTGGPSSGAPPPS-NH2) [Compound 6] | obviously reduce | obviously improved | 41.19 | significantly improve | better inhibition effect | significantly inhibit | obviously inhibit | obviously inhibit | significantly reduced | up-regulated | effectively inhibit fatty liver complicated by hepatic fibrosis | effectively inhibit | effectively reduce | effectively reduce | inhibit liver lipoid degeneration and non-alcoholic steatohepatitis | obviously better than Liraglutide | most obviously | obviously reduce
His-(D-Ser)-Gln-Gly-Thr-Phe-Thr-Ser-Asp-Tyr-Ser-Lys-Tyr-Leu-Asp-Glu-Lys-Ala-Ala-Lys(PEG2-PEG2-γGlu-CO(CH2)14CO2H)-Glu-Phe-Ile-Glu-Trp-Leu-Leu-Asn-Gly-Gly-Pro-Ser-Ser-Gly-Ala-Pro-Pro-Pro-Ser-NH2 (H[dS]QGTFTSDYSKYLDEKAAK([PEG2′-PEG2′-γGlu-C16 diacid])EFIEWLLNGGPSSGAPPPS-NH2) [Compound 27] |  |  | 92.34 |  |  |  |  |  |  |  |  |  |  |  |  |  |  | 
